Test results reported in US20230052893A1, “A SYNERGISTIC BACTERICIDE AND BACTERIOSTATIC ORGANIC SANITIZING/DISINFECTANT/CLEANING FORMULATION” (UNIVERSIDAD DE CONCEPCIÓN, priority 2020, published 2023).

Tests used:
[1] = system: Botrytis cinerea; assay: Inhibition of conidia germination; assay type: cell-based; details: 24 hours
Protocol: (§1) In summary 100 μl of inoculum suspension was added into 96 wells in plates, using the following concentrations: 0.037-14.8% w/v acetate buffer and 0.043-17.31% w/v propionate buffer; 100 μl water (fungus) or culture medium (bacteria) and 10 μl of inoculum suspension at a final concentration of 1×10^5 UFC/ml. An incubation of 24 hours at ±25° C. was performed, assays was made by triplicate. The antimicrobial effect was evaluated as follows: B. cinerea, a germinated conidia counting was made; and P. syringae, a minimal inhibitory concentration (MIC) was firstly made through presence/absence of turbidity, and from the concentrations in absence of turbidity 100 μl was taken to be transferred to a culture medium without the antimicrobial formulation and an incubation of 24 hours at room temperature was carried out to assay the minimal bactericide concentration (MBC).

[2] = system: E. coli ATCC 25932, L. monocytogenes ATCC 19115; Staphylococcus aureus ATCC 6538P, Salmonella enterica ATCC 13076; assay: MIC-MBC in planktonic cells, the four pathogens together; assay type: cell-based; details: buffer used alone; range over the four pathogens; 18-20 hrs exposure
Protocol: The efficacy of the formulation was evaluated through minimal inhibitory concentration (MIC) and minimal bactericide concentration (MBC) against pathogens E. coli ATCC 25932, L. monocytogenes ATCC 19115; Staphylococcus aureus ATCC 6538P, Salmonella enterica ATCC 13076. […] The range of disinfectant concentrations was 0.037-5.17% w/v to acetate buffer and 0.043-6.06% w/v to propionate buffer. These concentrations are obtained from a stock solution which is diluted with filtered water.

[3] = system: L. monocytogenes ATCC 19115 biofilm; assay: CDC biofilm reactor, biofilm on stainless steel coupons; assay type: cell-based, Listeria monocytogenes; details: 250 ppm, 30 minutes contact
Protocol: (§2) Tests on bacterial biofilms were also made to the pathogen strains, which were performed as follows: stainless steel coupons (type 316) were washed, installed on a support within a glass vessel and autoclaved at 121° C. by 20 minutes. To evaluate the disinfectant effect over a stablished biofilm to each separate bacteria, 3 ml of a concentration of 0.5 Mc Farland was inoculated within a vessel and then the same was incubated by 6, 12, 24 and 48 hours at 16° C. After each time of incubation supports containing coupons were removed and transferred to Falcon tubes of 50 ml containing the present synergistic disinfectant formulation at the following concentrations, DS1: 15% w/v (ratio acetate:propionate, 6.86:1) and DS2: 35% w/v (ratio acetate:propionate, 6.86:1). Peracetic acid was used (PAA) as control at concentrations of 250 ppm, the contact with the present synergistic disinfectant formulation or peracetic acid with supports containing biofilms was kept by 30 minutes. To perform a counting, an aliquot was taken, seeded into trypticase agar and incubated at 30° C. by 24 h, finally a counting of adhered cells was made. […]

[4] = system: E. coli ATCC 25932 biofilm; assay: as above; assay type: cell-based, Escherichia coli; details: 250 ppm, 30 minutes contact
Protocol: as §2

[5] = system: Salmonella enterica ATCC 13076 biofilm; assay: as above; assay type: cell-based; details: 250 ppm, 30 minutes contact
Protocol: (§3) Tests on bacterial biofilms were also made to the pathogen strains, which were performed as follows: stainless steel coupons (type 316) were washed, installed on a support within a glass vessel and autoclaved at 121° C. by 20 minutes. To evaluate the disinfectant effect over a stablished biofilm to each separate bacteria, 3 ml of a concentration of 0.5 Mc Farland was inoculated within a vessel and then the same was incubated by 6, 12, 24 and 48 hours at 16° C. After each time of incubation supports containing coupons were removed and transferred to Falcon tubes of 50 ml containing the present synergistic disinfectant formulation at the following concentrations, DS1: 15% w/v (ratio acetate:propionate, 6.86:1) and DS2: 35% w/v (ratio acetate:propionate, 6.86:1). Peracetic acid was used (PAA) as control at concentrations of 250 ppm, the contact with the present synergistic disinfectant formulation or peracetic acid with supports containing biofilms was kept by 30 minutes. To perform a counting, an aliquot was taken, seeded into trypticase agar and incubated at 30° C. by 24 h, finally a counting of adhered cells was made. FIGS. 1 to 4 showing bacteria concentrations obtained to different times after 30 minutes of treatment using the above mentioned disinfectant formulations and peracetic acid as control to the following pathogens: L. monocytogenes ATCC 19115 (FIG. 1); E. coli ATCC 25932 (FIG. 2), Salmonella enterica ATCC 13076.L. (FIG. 3); and Staphylococcus aureus ATCC 6538P (FIG. 4).

[6] = system: Staphylococcus aureus ATCC 6538P biofilm; assay: as above; assay type: cell-based; details: 250 ppm, 30 minutes contact
Protocol: as §3

[7] = system: mesophyll aerobics and enterobacteria; assay: Disinfectant effect on non-inoculated meats, the 3 types of meats together; details: 2.5% Sodium Acetate; different meats, during test days
Protocol: Assays to evaluate antimicrobial effect on the surface of beef, chicken meat and salmon meat was performed. […] The growth of bacteria Escherichia coli was allowed in a TSB culture medium by 24 h at 35° C.
Disinfecting effect on a total mesophyll aerobic and enterobacteria microorganism counting was evaluated to initial non inoculated (E. coli) meat. Also, a concentration of 10^1 UFC/g of E. coli was inoculated and then the disinfectant effect was evaluated on such pathogen microorganism counting.
Meat (beef, chicken and salmon) was purchased the same date in which the assay was arranged and was kept under storing conditions at 4° C. up to using the same. Prior to initiating assays pieces of 5 grams, pieces were randomly selected to each treatment, and a) pieces were independently inoculated with 0.2 ml of culture comprising the above mentioned bacteria by separate and 2 ml was applied to the treatments to be defined below or b) pieces were only chopped and 2 ml of treatment was applied:
Meat pieces (inoculated or non-inoculated) with its respective treatments was transferred to tubes of 50 mL under conditions of sterility and stored at 4° C. up to its final evaluation. Assays were made by triplicate.
Antimicrobial activity evaluation was performed to 0, 3, 8 and 12 post-treatment days. […] Colonies were counted at 24 and 48 hours, depending the medium to be used to the counting.

[8] = system: Pseudomonas syringae; assay: MIC and MBC against agronomical pest; assay type: cell-based; details: buffer alone; 24 hours
Protocol: as §1

[9] = system: pathogen disease; assay: Disease incidence in inoculated fruits, 21-days aged fruits (fruit not stated)
Description: Fruits having similar, size, form and color and having no visual damage by fungi were selected. To perform assays a 1-2 mm deep wound was made on the selected fruit by a needle and 10^5 UFC/ml B. cinerea and Penicillium spp. (to different samples, independent test) were inoculated through the same wound under sterility conditions, fruits was not disinfected prior to the inoculation procedures. Assays was made by triplicate on 6 units submitted to visual inspection during the treatment, which were equidistantly located therebetween in Petri plates of 100×15 mm and exposed to a disinfectant treatment (Different proportions and concentrations) spraying on the fruit 0.2 ml of the different synergistic proportion of the formulation, finally an incubation at 4° C. was allowed.
Four acetate/propionate mixtures (proportions) were tested, 17.2:1, 6.86:1, 1.72:1 and 0.043:1; for each of them two or three concentrations were tested. Treatments: Treatment A/Treatment 1: 3.38% w/v mixture acetate/propionate buffers. Treatment B/Treatment 2: 11.25% w/v mixture acetate/propionate buffers. Treatment C: 25% w/v mixture acetate/propionate buffers. Treatment D/Negative Control: Fruits with wound immersed in water. […]
Assays were evaluated to days 0 (control), 7, 14 and 21, a counting of fruits showing pathogen signs was made to determined incidence. […]

## CCC(=O)O [Propionate, propionate buffer]
[1]; Botrytis cinerea, Propionate 2.6 % w/v
  inhibition at 2.6 % strength: 5.6%
[1]; Botrytis cinerea, Propionate 6.06 % w/v
  inhibition at 6.06 % strength: 18.1%
[1]; Botrytis cinerea, Propionate 8.65 % w/v
  inhibition at 8.65 % strength: 21.2%
[2]
  Concentration needed by separate to eliminate the pathogens (MBC): 0.43-3.46 % w/v

## CC(=O)OO [peracetic acid]
[3]; 24-hours aged biofilms
  Elimination of biofilm: fully eliminate
[3]; biofilm after 6 and 12 hours
  Reduction of biofilm: completely reduced
[4]; 24-hours aged biofilms
  Elimination of biofilm: fully eliminate
[4]; biofilm after 6 and 12 hours
  Reduction of biofilm: completely reduced
[5]; 24-hours aged biofilms
  Elimination of biofilm: fully eliminate
[5]; biofilm after 6 and 12 hours
  Reduction of biofilm: completely reduced
[6]; 24-hours aged biofilms
  Elimination of biofilm: fully eliminate
[6]; biofilm after 6 and 12 hours
  Reduction of biofilm: completely reduced

## CC(=O)[O-].[Na+] [sodium acetate, Sodium Acetate]
[7]
  Aerobic mesophilic and enterobacterial counts: close to the negative control

## acetate buffer
[1]; Acetate 2.22 % w/v, adjusted mortality media
  Inhibition of germination (%): 0.3%
[1]; Acetate 5.17 % w/v
  Inhibition of germination (%): 7.4%
[1]; Acetate 7.4 % w/v
  Inhibition of germination (%): 8.1%
[8]
  MBC: 3.69 % w/v
[2]
  Concentration needed by separate to eliminate the pathogens (MBC): 0.74-3.69 % w/v

## benzalkonium chloride
[9]
  Time for which pathogen disease / incidence is inhibited: 42 days
